One assay deals with KRas G12V (Homo sapiens, UniProt P01116, G12V). In words: biochemical.
The target in another assay is KRas WT (Homo sapiens, UniProt P01116). In words: biochemical.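 Also: binding to KRas read as TR-FRET displacement after a one-hour room-temperature incubation, IC50 derived from percent-of-control values.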
The next assay addresses KRas G12D (Homo sapiens, UniProt P01116, G12D). Kind of assay: biochemical.
The next assay addresses KRas G12C (Homo sapiens, UniProt P01116, G12C). Kind of assay: biochemical.
For a further assay, the target named is KRas G12R (Homo sapiens, UniProt P01116, G12R). Kind of assay: biochemical.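 Also: TR-FRET displacement assay of compound binding to KRas, read after one hour at room temperature, potency from a four-parameter fit of percent-of-control values.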
KRas G12R, sequence (P01116 1-169 isoform P01116-2 G12R): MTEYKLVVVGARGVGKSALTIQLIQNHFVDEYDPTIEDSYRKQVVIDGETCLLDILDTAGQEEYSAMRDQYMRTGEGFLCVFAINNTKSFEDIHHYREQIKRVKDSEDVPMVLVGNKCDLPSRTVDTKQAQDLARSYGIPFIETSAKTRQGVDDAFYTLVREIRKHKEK
Another assay deals with KRas G12A (Homo sapiens, UniProt P01116, G12A). Kind of assay: biochemical.
KRas G12A, sequence (P01116 1-169 isoform P01116-2 G12A): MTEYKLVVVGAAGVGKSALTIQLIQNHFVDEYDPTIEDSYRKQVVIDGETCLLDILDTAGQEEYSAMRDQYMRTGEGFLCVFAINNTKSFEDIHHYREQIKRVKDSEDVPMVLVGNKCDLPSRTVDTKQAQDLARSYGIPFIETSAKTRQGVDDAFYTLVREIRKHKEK
The next assay deals with T1, KRas G13D (Homo sapiens, UniProt P01116, G13D).
T1 construct: Biotinylated KRas (corresponding to amino acids 1-169, produced at Accelegan Inc.); biotin (biotinylated); purchased Accelegan Inc
T1 sequence (P01116 1-169 isoform P01116-2 G13D): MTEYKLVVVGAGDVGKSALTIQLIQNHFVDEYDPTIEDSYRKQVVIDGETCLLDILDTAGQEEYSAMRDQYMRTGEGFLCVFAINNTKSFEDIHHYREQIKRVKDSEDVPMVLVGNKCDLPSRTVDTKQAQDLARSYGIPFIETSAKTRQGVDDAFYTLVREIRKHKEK
Kind of assay: KRas binding assay (TR-FRET displacement). Background: In TR-FRET formats the signal depends on donor and acceptor labels being close together.

For another assay, the target named is T2, KRas Q61H (Homo sapiens, UniProt P01116, Q61H).
T2 construct: Biotinylated KRas (corresponding to amino acids 1-169, produced at Accelegan Inc.); biotin (biotinylated); purchased Accelegan Inc
T2 sequence (P01116 1-169 isoform P01116-2 Q61H): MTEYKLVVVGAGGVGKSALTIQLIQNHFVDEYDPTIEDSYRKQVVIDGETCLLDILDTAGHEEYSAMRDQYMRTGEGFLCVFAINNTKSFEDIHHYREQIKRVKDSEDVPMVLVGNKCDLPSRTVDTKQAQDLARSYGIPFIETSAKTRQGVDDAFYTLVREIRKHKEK
In words: KRas binding assay (TR-FRET displacement).

Another assay concerns the target KRas G12S (Homo sapiens, UniProt P01116, G12S). In words: biochemical.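 Also: TR-FRET displacement binding to KRas, read after one hour incubation at room temperature, IC50 from four-parameter fit of percent of control.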

The values that follow come from patent publication US12398154B2, “Azaquinazoline pan-KRas inhibitors” (Mirati Therapeutics, Inc., priority 2020, dated 2025).

What is called IC50 is the midpoint of a concentration-inhibition curve.

KRas G12D, sequence (P01116 1-169 isoform P01116-2 G12D): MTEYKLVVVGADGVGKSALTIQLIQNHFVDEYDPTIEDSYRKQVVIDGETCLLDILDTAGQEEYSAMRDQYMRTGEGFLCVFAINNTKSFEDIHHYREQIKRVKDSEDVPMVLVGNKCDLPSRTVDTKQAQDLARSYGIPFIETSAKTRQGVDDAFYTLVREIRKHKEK
KRas WT, sequence (P01116 1-169 isoform P01116-2): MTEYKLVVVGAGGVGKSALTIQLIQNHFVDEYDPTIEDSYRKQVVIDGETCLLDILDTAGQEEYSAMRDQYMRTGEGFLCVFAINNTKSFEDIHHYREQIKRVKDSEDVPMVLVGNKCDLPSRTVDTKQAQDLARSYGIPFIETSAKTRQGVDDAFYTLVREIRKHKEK
KRas G12V, sequence (P01116 1-169 isoform P01116-2 G12V): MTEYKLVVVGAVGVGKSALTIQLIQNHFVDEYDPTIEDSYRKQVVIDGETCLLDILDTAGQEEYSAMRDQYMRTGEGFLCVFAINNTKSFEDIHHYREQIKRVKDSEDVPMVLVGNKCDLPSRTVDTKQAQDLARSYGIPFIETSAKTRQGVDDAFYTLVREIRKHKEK
KRas G12S, sequence (P01116 1-169 isoform P01116-2 G12S): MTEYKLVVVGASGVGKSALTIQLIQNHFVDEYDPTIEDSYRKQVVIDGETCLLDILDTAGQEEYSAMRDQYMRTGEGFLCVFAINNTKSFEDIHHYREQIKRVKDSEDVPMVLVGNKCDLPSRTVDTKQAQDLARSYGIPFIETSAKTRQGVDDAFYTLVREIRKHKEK
KRas G12C, sequence (P01116 1-169 isoform P01116-2 G12C): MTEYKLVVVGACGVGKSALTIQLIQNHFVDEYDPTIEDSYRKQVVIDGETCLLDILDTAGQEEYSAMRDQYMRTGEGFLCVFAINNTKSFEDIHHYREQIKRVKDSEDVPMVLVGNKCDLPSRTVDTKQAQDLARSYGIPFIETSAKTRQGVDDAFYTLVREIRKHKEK

On to `Fc1c(-c2cccc3cccc(F)c23)ncc2c(NCc3cn[nH]c3)nc(OCC34CCCN3CCC4)nc12` [Example 93, N-((1H-pyrazol-4-yl)methyl)-8-fluoro-7-(8-fluoronaphthalen-1-yl)-2-((hexahydro-1H-pyrrolizin-7a-yl)methoxy)pyrido[4,3-d]pyrimidin-4-amine], for which the 50% inhibitory concentration (IC50) on KRas G12V amounted to 2.93 µM; on KRas WT, 14.9 µM; against KRas G12D it was 83.6 µM; against KRas G12C, 4.05 µM; against KRas G12R, 3.39 µM; on KRas G12A it was 7.84 µM. The 50% inhibitory concentration (IC50) is 20400 nM on KRas G13D, 21800 nM on KRas Q61H and 10.2 µM against KRas G12S.
`Fc1c(-c2cccc3cccc(F)c23)ncc2c(NCc3c[nH]c4ncccc34)nc(OCC34CCCN3CCC4)nc12` [Example 94, N-((1H-pyrrolo[2,3-b]pyridin-3-yl)methyl)-8-fluoro-7-(8-fluoronaphthalen-1-yl)-2-((tetrahydro-1H-pyrrolizin-7a(5H)-yl)methoxy)pyrido[4,3-d]pyrimidin-4-amine]: the IC50 came out at 0.146 µM at KRas G12V; 1.39 µM on KRas WT; 4.51 µM on KRas G12D; 0.183 µM against KRas G12C; 0.115 µM against KRas G12R; 0.24 µM against KRas G12A. Moreover, the half-inhibitory concentration (IC50) is 1250 nM on KRas G13D, 1850 nM on KRas Q61H and 0.368 µM on KRas G12S.
Turning to `O=S1(=O)CC(Nc2nc(OCC34CCCN3CCC4)nc3c(F)c(-c4cccc5cccc(F)c45)ncc23)C1` [Example 95, 3-((8-fluoro-7-(8-fluoronaphthalen-1-yl)-2-((hexahydro-1H-pyrrolizin-7a-yl)methoxy)pyrido[4,3-d]pyrimidin-4-yl)amino)thietane1,1-dioxide], the half-inhibitory concentration (IC50) was 4.99 µM at KRas G12V; 3.99 µM against KRas WT; 55 µM on KRas G12D; 3.62 µM on KRas G12C; 3.06 µM on KRas G12R; 5 µM on KRas G12A. The half-inhibitory concentration (IC50) was 7180 nM at KRas G13D, 10300 nM at KRas Q61H and 4.12 µM at KRas G12S.
Take `O=c1ccc(CNc2nc(OCC34CCCN3CCC4)nc3c(F)c(-c4cccc5cccc(F)c45)ncc23)c[nH]1` [Example 96, 5-(((8-fluoro-7-(8-fluoronaphthalen-1-yl)-2-((hexahydro-1H-pyrrolizin-7a-yl)methoxy)pyrido[4,3-d]pyrimidin-4-yl)amino)methyl)pyridin-2 (1H)-one]: the IC50 was found to be 1.94 µM on KRas G12V; 5.71 µM against KRas WT; 62.9 µM at KRas G12D; 1.95 µM against KRas G12C; 3.19 µM on KRas G12R; 2.5 µM against KRas G12A. In addition, the 50% inhibitory concentration (IC50) on KRas G13D is 10700 nM; on KRas Q61H, 22100 nM; against KRas G12S, 3.23 µM.
Regarding `O=C1CC2(CCCN(c3nc(OCC45CCCN4CCC5)nc4c(F)c(-c5cccc6cccc(F)c56)ncc34)C2)N1` (stereo not drawn) [Example 97, 6-(8-fluoro-7-(8-fluoronaphthalen-1-yl)-2-((hexahydro-1H-pyrrolizin-7a-yl)methoxy)pyrido[4,3-d]pyrimidin-4-yl)-1,6-diazaspiro[3.5]nonan-2-one], the IC50 at KRas G12V is 0.189 µM; on KRas WT it was 0.333 µM; at KRas G12D, 0.175 µM; on KRas G12C it was 0.192 µM; at KRas G12R, 0.348 µM; at KRas G12A, 0.227 µM. Besides, the half-maximal inhibitory concentration (IC50) at KRas G13D was 297 nM; at KRas Q61H, 412 nM; on KRas G12S, 0.272 µM.
As to `O=C1NCC12CCCN(c1nc(OCC34CCCN3CCC4)nc3c(F)c(-c4cccc5cccc(F)c45)ncc13)C2` (stereo not drawn) [Example 98, 6-(8-fluoro-7-(8-fluoronaphthalen-1-yl)-2-((tetrahydro-1H-pyrrolizin-7a(5H)-yl)methoxy)pyrido[4,3-d]pyrimidin-4-yl)-2,6-diazaspiro[3.5]nonan-1-one], the concentration for half-maximal inhibition (IC50) against KRas G12V is 3.01 µM; at KRas WT it was 3.36 µM; on KRas G12D, 1.89 µM; against KRas G12C it was 2.84 µM; at KRas G12R it was 6.42 µM; at KRas G12A, 2.91 µM. Moreover, the values for the 50% inhibitory concentration (IC50) at KRas G13D, at KRas Q61H and against KRas G12S were 3210 nM, 4770 nM and 4.01 µM, respectively.
On to `Cn1ncc2ccc(Nc3nc(OCC45CCCN4CCC5)nc4c(F)c(-c5cccc6cccc(F)c56)ncc34)cc21` [Example 99, 8-fluoro-7-(8-fluoronaphthalen-1-yl)-2-((hexahydro-1H-pyrrolizin-7a-yl)methoxy)-N-(1-methyl-1H-indazol-6-yl)pyrido[4,3-d]pyrimidin-4-amine], for which the IC50 at KRas G12V is 3.97 µM; on KRas WT, 32.4 µM; against KRas G12D, not below 100 µM; on KRas G12C, 8.33 µM; against KRas G12R, 16.7 µM; against KRas G12A, 13.6 µM. Also, the IC50 at KRas G13D was found to be 59800 nM; at KRas Q61H, 98500 nM; on KRas G12S it was 21.7 µM.
On to `Fc1c(-c2cccc3cccc(F)c23)ncc2c(Nc3ccc4[nH]ncc4c3)nc(OCC34CCCN3CCC4)nc12` [Example 100, 8-fluoro-7-(8-fluoronaphthalen-1-yl)-2-((hexahydro-1H-pyrrolizin-7a-yl)methoxy)-N-(1H-indazol-5-yl)pyrido[4,3-d]pyrimidin-4-amine], for which the IC50 against KRas G12V is 17.3 µM; on KRas WT, 40.3 µM; at KRas G12D it was 11.8 µM; against KRas G12C, 39.9 µM; against KRas G12R, not below 100 µM; on KRas G12A, 50.4 µM. The half-inhibitory concentration (IC50) came out at 49300 nM at KRas G13D, 42000 nM at KRas Q61H and 28.8 µM on KRas G12S.
As for `Fc1c(-c2cccc3cccc(Cl)c23)ncc2c(N3CC(n4ccnc4)C3)nc(OCC34CCCN3CCC4)nc12` [Example 101, 4-(3-(1H-imidazol-1-yl)azetidin-1-yl)-7-(8-chloronaphthalen-1-yl)-8-fluoro-2-((tetrahydro-1H-pyrrolizin-7a(5H)-yl)methoxy)pyrido[4,3-d]pyrimidine], the 50% inhibitory concentration (IC50) against KRas G12V was 0.966 µM; on KRas WT, 3.03 µM; against KRas G12D, 15.3 µM; at KRas G12C, 0.679 µM; against KRas G12R it was 0.615 µM; against KRas G12A, 0.994 µM. The 50% inhibitory concentration (IC50) worked out at 4230 nM on KRas G13D, 2580 nM at KRas Q61H and 1.34 µM at KRas G12S.
As for `O=C1CC(CNc2nc(OCC34CCCN3CCC4)nc3c(F)c(-c4cccc5cccc(Cl)c45)ncc23)CN1` (stereo not drawn) [Example 102, 4-(((7-(8-chloronaphthalen-1-yl)-8-fluoro-2-((tetrahydro-1H-pyrrolizin-7a(5H)-yl)methoxy)pyrido[4,3-d]pyrimidin-4-yl)amino)methyl)pyrrolidin-2-one], the IC50 at KRas G12V amounted to 0.365 µM; against KRas WT, 1.17 µM; against KRas G12D, 2.29 µM; against KRas G12C, 0.399 µM; against KRas G12R, 0.479 µM; at KRas G12A it was 0.634 µM. Moreover, the half-inhibitory concentration (IC50) on KRas G13D is 769 nM; at KRas Q61H, 1180 nM; against KRas G12S, 0.191 µM.
Regarding `Oc1nc(CCCNc2nc(OCC34CCCN3CCC4)nc3c(F)c(-c4cccc5cccc(Cl)c45)ncc23)n[nH]1` [Example 103, 3-(3-((7-(8-chloronaphthalen-1-yl)-8-fluoro-2-((tetrahydro-1H-pyrrolizin-7a(5H)-yl)methoxy)pyrido[4,3-d]pyrimidin-4-yl)amino)propyl)-1H-1,2,4-triazol-5-ol], the half-maximal inhibitory concentration (IC50) against KRas G12V is 1.83 µM; at KRas WT, 3.95 µM; at KRas G12D it was 15.5 µM; on KRas G12C, 1.89 µM; against KRas G12R, 1.5 µM; against KRas G12A it was 2.09 µM. Also, the concentration for half-maximal inhibition (IC50) worked out at 4210 nM on KRas G13D, 4940 nM at KRas Q61H and 2.45 µM at KRas G12S.
For the molecule `Fc1c(-c2cccc3cccc(Cl)c23)ncc2c(N3CCCC3c3cn[nH]c3)nc(OCC34CCCN3CCC4)nc12` (stereo not drawn) [Example 104, 4-(2-(1H-pyrazol-4-yl)pyrrolidin-1-yl)-7-(8-chloronaphthalen-1-yl)-8-fluoro-2-((tetrahydro-1H-pyrrolizin-7a(5H)-yl)methoxy)pyrido[4,3-d]pyrimidine], the concentration for half-maximal inhibition (IC50) against KRas G12V stood at 2.87 µM; on KRas WT, 2.33 µM; against KRas G12D it was 7.61 µM; at KRas G12C it was 2.3 µM; on KRas G12R, 2.82 µM; on KRas G12A it was 1.74 µM. For the same molecule, the values for the IC50 on KRas G13D, at KRas Q61H and on KRas G12S were 3640 nM, 3210 nM and 2.02 µM, respectively.
In the case of `OCc1n[nH]c(CNc2nc(OCC34CCCN3CCC4)nc3c(F)c(-c4cccc5cccc(Cl)c45)ncc23)n1` [Example 105, (5-(((7-(8-chloronaphthalen-1-yl)-8-fluoro-2-((tetrahydro-1H-pyrrolizin-7a(5H)-yl)methoxy)pyrido[4,3-d]pyrimidin-4-yl)amino)methyl)-1H-1,2,4-triazol-3-yl)methanol], the half-maximal inhibitory concentration (IC50) was found to be 2.81 µM at KRas G12V; 8.01 µM against KRas WT; 9.05 µM against KRas G12D; 3.51 µM against KRas G12C; 5.92 µM against KRas G12R; 6.7 µM on KRas G12A. The IC50 is 13800 nM at KRas G13D, 13800 nM on KRas Q61H and 5.75 µM against KRas G12S.
